Data reported in US20130316349A1, “N-METHYLPURINE DNA GLYCOSYLASE AND POLYMERASE BETA AS BIOMARKERS FOR ALKYLATOR CHEMOTHERAPY POTENTIATION” (University of Pittsburgh - Of the Commonwealth System of …, priority 2010, published 2013).
“Also recorded” adds a separate entry of the source.

Key:
T98G/MPG/Polβ KD cells [1] = test system: T98G/MPG/Polβ KD cells
Description: (§1) Results were calculated from the average of three or four separate experiments and are reported as the percentage of treated cells relative to the cells without treatment (% control).

PARP = conditions: PJ34 at 2 μM; cited from earlier work
LN428/MGMT/MPG cells = assay: Long-term cell survival assay (10 days); format: cell-based; conditions: pre- (4 μM) and co-treatment with PJ34 (2 μM); LN428/MGMT/MPG vs LN428/MGMT
Description: as §1

LN428/MGMT cells = assay: Long-term cell survival assay (10 days); format: cell-based; conditions: pre- (4 μM) and co-treatment with PJ34 (2 μM)
Description: as §1

T98G/MPG/Polβ KD cells [2] = assay: Long-term cell survival assay (10 days)
Description: as §1

T98G cells = assay: Long-term cell survival assay (10 days); format: cell-based; conditions: 50 and 100 μM TMZ
Description: as §1

T98G/MPG cells = assay: Long-term cell survival assay (10 days); conditions: for ABT-888-induced potentiation of TMZ: T98G/MPG vs T98G, 50 and 100 μM TMZ, p<0.05 and p<0.01
Description: as §1

PARG mRNA = assay: qRT-PCR of PARG mRNA in LN428/MPG cells stably expressing shRNA; format: cell-based; conditions: LN428/MPG cells stably expressing each shRNA
Description: Human WT MPG, mutant MPG (N169D), WT Flag Polβ and Flag Pol β (K72A) expressing cell lines were developed by transfecting cells with corresponding plasmids using FuGene™ 6 Transfection Reagent (Roche, Indianapolis, Ind.) according to the manufacturer's protocol. Transfected cells were cultured in G418 and/or Puromycin for 2 weeks and individual clones stably expressing human MPG or Pol β were selected. Lentiviral particles were generated by co-transfection of 4 plasmids, pLKO.1-puro-TurboGFP (control, expresses GFP) or pCMV-tGFP-PARG (PARG shRNA, co-expresses PARG shRNA and GFP) together with pMD2.g(VSVG), pVSV-REV and PMDLg/pRRE, into 293-FT cells (Zufferey et al., J. Virol., 72:9873-9880, 1998; Zufferey et al., Nat. Biotechnol., 15:871-875, 1997) using FuGene™ 6 Transfection Reagent (Roche, Indianapolis, Ind.), as described previously (Tang et al., Mol. Cancer Res. 8(1):67-79, 2010). […] Cells expressing copGFP only or both copGFP and PARG specific shRNA were isolated by fluorescence activated cell sorting (FACS).
Expression of MPG, Polβ and PARP1 in the cell lines was measured by quantitative RT-PCR using an Applied Biosystems StepOnePlus™ system as described previously (Tang et al., Mol Cancer Res 8:67-79, 2010). […] Each sample was analyzed in triplicate and the results are an average of all three analyses. […]

[3] = test system: degradation of PAR (PARG); assay: Immunoblot for PAR after TMZ exposure in LN428/MPG cells; format: cell-based; conditions: 1.5 mM TMZ
Description: Twenty microgram of protein was loaded on a precast 4-20% NuPAGE™ Tris-Glycine gel (Invitrogen, Carlsbad, Calif.). For whole cell extracts used in probing Poly(ADP-ribose) (PAR), 3×10^6 cells were seeded into a 100 mm cell culture dish 24 hours before drug treatment. Cells were then treated with TMZ (1.5 mM) or DMSO (control) for different periods of time. After treatment, cells were washed twice with cold PBS, collected and lysed in 400 μL of 2×Laemmli buffer (2% SDS, 20% Glycerol, 62.5 mM Tris-HCl pH6.8, 0.01% Bromophenol Blue). Samples were boiled for 8 minutes and extracts from approximately 1.5×10^5 cells were loaded each lane on a 4-12% pre-cast NuPAGE™ Tris-Glycine gel (Invitrogen, Carlsbad, Calif.) for immunoblot analysis. The following primary antibodies were used in immunoblot assays: anti-human MPG (Mab; clone 506-3D) (Trivedi et al., Mol. Pharmacol, 2008); anti-Polβ (Mab clone 61; Thermo Fisher Scientific); anti-APE1 (EMD Biosciences); anti-PCNA (Santa Cruz); anti-poly(ADP-ribose) (PAR) (Clone 10H); anti-MGMT (Novus, Littleton, Colo.).

[4] = test system: LN428/MPG/Flag-Pol β-K72A cells; assay: Short-term cell survival assay (48 hours MTS assay); format: cell-based; conditions: 5′ dRP lyase null mutant Polβ (K72A) over-expressed in LN428/MPG
Description: as §1

LN428 cells = assay: as above; format: cell-based; conditions: MX 60 mM 30 min, then TMZ with MX 30 mM 48 hours
Description: as §1

[5] = test system: LN428/MPG cells (MPG over-expressing); assay: as above; format: cell-based; conditions: MX 60 mM 30 min, then TMZ with MX 30 mM 48 hours; LN428/MPG vs LN428
Description: as §1

[6] = test system: LN428 cells over-expressing mutant MPG (N169D); assay: as above; format: cell-based; conditions: glycosylase dead mutant MPG (N169D) over-expressed in LN428
Description: as §1

[7] = test system: LN428/MPG/Flag-Polβ-WT cells; assay: as above; format: cell-based; conditions: WT Polβ over-expressed in LN428/MPG
Description: as §1

[8] = test system: LN428/MPG/Flag-APE1 cells; assay: as above; format: cell-based; conditions: APE1 over-expressed in LN428/MPG
Description: as §1

In the case of Cn1nnc2c(C(N)=O)ncn2c1=O [TMZ, 3-methyl-2-oxo-1,3,4,5,8-pentazabicyclo[4.3.0]nona-4,6,8-triene-7-carbooxamide], the IC50 (T98G/MPG/Polβ KD cells [1]) is reported as less than 25 µM.

In the case of CN(C)CC(=O)Nc1ccc2[nH]c(=O)c3ccccc3c2c1 [PJ34], the “level of PARP activation following exposure to TMZ” value (PARP) is given as “significantly reduced the level of PARP activation”, the “PJ34-induced potentiation of TMZ” value (LN428/MGMT/MPG cells) is given as “substantially increased PJ34-induced potentiation of TMZ; also recorded: much higher in the MPG over expressing cells” and the “PJ34-induced potentiation of TMZ” value (LN428/MGMT cells) is given as “sensitized cells to TMZ”.

In the case of C[C@]1(c2nc3c(C(N)=O)cccc3[nH]2)CCCN1 [ABT-888], the “cells killed by ABT-888 treatment alone” value (T98G/MPG/Polβ KD cells [2]; T98G/MPG/Polβ KD cells, no TMZ) is reported as “about 70%”, the “ABT-888-induced potentiation of TMZ (cytotoxicity of TMZ and ABT-888 vs TMZ alone)” value (T98G/MPG/Polβ KD cells [2]; T98G/MPG/Polβ KD, 25 and 50 μM TMZ, p<0.01) is reported as “significantly increased ABT-888-induced potentiation of TMZ; also recorded: significantly increased cytotoxicity compared to TMZ treatment alone” and the “ABT-888-induced potentiation of TMZ” value (T98G cells) is reported as “sensitized T98G cells to TMZ”. The “cells killed by ABT-888 treatment alone” value (T98G/MPG cells; T98G/MPG cells, no TMZ) was roughly 30%, the “ABT-888-induced potentiation of TMZ” value (T98G/MPG cells) was “significantly increased the potentiation induced by ABT-888” and the “ABT-888-induced potentiation of TMZ” value (T98G/MPG cells; listed as A8T-888) was “significantly increased A8T-888-induced potentiation of TMZ”.

For “PARG shRNA #4: MISSION TRC shRNA targeting PARG, SEQ ID NO: 12; used for PARG KD (CCGGGCTGAGCGAGATGTGGTTTATCTCGAGATAAACCACATCTCGCTCAGCTTTTTG)”, the “level of PARG mRNA (rank among five shRNA constructs)” value (PARG mRNA) was “lowest” and the “degradation of PAR following exposure to TMZ” value [3] was “greatly decreased the degradation of PAR”.

With “PARG shRNA #2: MISSION TRC shRNA targeting PARG, SEQ ID NO: 10 (CCGGCGATTGCATGTCACTTACGAACTCGAGTTCGTAAGTGACATGCAATCGTTTTTG)” the “level of PARG mRNA (rank among five shRNA constructs)” value (PARG mRNA) was “second lowest” and the “degradation of PAR following exposure to TMZ” value [3] was “greatly decreased the degradation of PAR”.

For CON [MX, Methoxyamine], the “MX-induced potentiation of TMZ” value [4] was “did not affect MX-induced potentiation of TMZ”, the “MX-induced potentiation of TMZ” value (LN428 cells) was “sensitized both cell lines to TMZ” and the “MX-induced potentiation of TMZ” value [5] was “dramatically increases MX-induced potentiation of TMZ; also recorded: much higher in the MPG over-expressing cells”. For the same compound, the “MX-induced potentiation of TMZ” value [6] was “did not sensitize LN428 cells to a combined treatment of MX and TMZ”, the “MX-induced potentiation of TMZ” value [7] was “dramatically reduced the potentiation induced by MX” and the “MX-induced potentiation of TMZ” value [8] was “did not alter the potentiation of TMZ induced by MX”.
